According to PMC3982047 (Nature, 2014):
Peptide text beside a SMILES is read from it.

Key:
PepTSo = PepTSo (Shewanella oneidensis, UniProt Q8EKT7); test: microscale thermophoresis; type: binding
AtNRT1.1 [1] = molecular target: T1, AtNRT1.1 (Arabidopsis thaliana, UniProt Q05085); test: microscale thermophoresis; type: binding
T1 sequence (Q05085 1-590): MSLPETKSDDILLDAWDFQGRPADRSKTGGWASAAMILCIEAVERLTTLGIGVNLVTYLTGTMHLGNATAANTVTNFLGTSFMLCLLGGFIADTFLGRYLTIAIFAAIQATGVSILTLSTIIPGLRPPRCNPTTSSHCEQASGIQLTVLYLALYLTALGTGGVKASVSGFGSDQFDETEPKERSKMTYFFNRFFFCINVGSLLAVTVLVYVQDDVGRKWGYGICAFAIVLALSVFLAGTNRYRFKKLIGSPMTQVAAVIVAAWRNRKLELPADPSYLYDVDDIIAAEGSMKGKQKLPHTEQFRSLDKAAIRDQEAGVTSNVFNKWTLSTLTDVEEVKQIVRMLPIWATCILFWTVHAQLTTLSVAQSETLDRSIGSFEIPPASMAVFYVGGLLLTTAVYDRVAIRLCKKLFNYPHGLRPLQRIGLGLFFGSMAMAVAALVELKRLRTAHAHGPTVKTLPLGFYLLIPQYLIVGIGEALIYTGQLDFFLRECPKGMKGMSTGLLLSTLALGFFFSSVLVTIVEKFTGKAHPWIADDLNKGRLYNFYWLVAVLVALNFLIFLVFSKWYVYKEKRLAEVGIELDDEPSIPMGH

AtNRT1.1 [2] = molecular target: AtNRT1.1 (Arabidopsis thaliana, UniProt Q05085, T101D); test: microscale thermophoresis; type: binding
Chain of AtNRT1.1 (Arabidopsis thaliana, UniProt Q05085, T101D) (Q05085 whole entry T101D): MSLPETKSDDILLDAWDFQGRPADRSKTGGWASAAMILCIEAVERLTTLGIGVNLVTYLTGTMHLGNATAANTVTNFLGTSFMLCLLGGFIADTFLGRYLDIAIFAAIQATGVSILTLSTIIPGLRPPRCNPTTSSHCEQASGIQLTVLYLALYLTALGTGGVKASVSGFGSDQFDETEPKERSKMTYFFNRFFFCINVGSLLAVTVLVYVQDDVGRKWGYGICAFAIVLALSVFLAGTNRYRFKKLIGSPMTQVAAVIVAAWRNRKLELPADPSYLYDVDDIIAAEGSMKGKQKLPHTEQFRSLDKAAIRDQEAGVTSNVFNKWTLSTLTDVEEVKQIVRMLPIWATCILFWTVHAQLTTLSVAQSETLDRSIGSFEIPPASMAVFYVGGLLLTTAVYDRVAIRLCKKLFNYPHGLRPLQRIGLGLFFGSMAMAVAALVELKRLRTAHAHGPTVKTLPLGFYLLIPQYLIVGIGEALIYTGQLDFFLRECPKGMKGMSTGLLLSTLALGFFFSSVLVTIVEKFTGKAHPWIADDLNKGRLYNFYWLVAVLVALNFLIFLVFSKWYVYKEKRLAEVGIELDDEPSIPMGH

AtNRT1.1 [3] = molecular target: AtNRT1.1 (Arabidopsis thaliana, UniProt Q05085); test: biochemical
[4] = molecular target: PepTSo, peptide transporter from Shewanella oniendensis (Shewanella oniendensis (so in the source)); test: MST

## C[C@H](N)C(=O)N[C@@H](C)C(=O)O [Ala-Ala] (H-Ala-Ala-OH)
PepTSo
  Kd: ~35 µM

## [O-][Cl+2]([O-])O [chlorate]
AtNRT1.1 [1]
  Kd: ~5000 µM

## O=[N+]([O-])O [nitrate]
AtNRT1.1 [2]
  Kd: 1000 ± 120 µM
AtNRT1.1 [3]
  Kd: 1000 ± 150 µM

## di-peptide Ala-Ala
[4]
  Kd: 35 µM
